Source: ChEMBL document CHEMBL5625221, “Discovery of indolinone-bearing benzenesulfonamides as new dual carbonic anhydrase and VEGFR-2 inhibitors possessing anticancer and pro-apoptotic properties” (Eur J Med Chem, 2023)
pIC50, pKi: −log10 of the molar value.

Tests used:
Carbonic anhydrase 9 = Carbonic anhydrase 9 (Homo sapiens, UniProt Q16790); experiment: Inhibition of human carbonic anhydrase 9 assessed as inhibition constant preincubated for 15 mins by phenol red dye based stopped flow CO2 hydration assay
HCT-116 = experiment: cells; conditions: Homo sapiens, HCT-116, 48 h
Description: Antiproliferative activity against human HCT-116 cells assessed as inhibition of cell growth incubated for 48 hrs by WST-1 reagent based ELISA

MCF7 [1] = experiment: cells; conditions: Homo sapiens, MCF7, 48 h
Description: Antiproliferative activity against human MCF7 cells assessed as inhibition of cell growth incubated for 48 hrs by WST-1 reagent based ELISA

[2] = biological target: Vascular endothelial growth factor receptor 2 (Homo sapiens, UniProt P35968); experiment: Inhibition of VEGFR-2 (unknown origin) using biotinylated poly(Glu-Tyr) at 4:1 ratio as substrate in presence of ATP incubated for 5 mins by ELISA
Chain of Vascular endothelial growth factor receptor 2 (P35968 whole entry): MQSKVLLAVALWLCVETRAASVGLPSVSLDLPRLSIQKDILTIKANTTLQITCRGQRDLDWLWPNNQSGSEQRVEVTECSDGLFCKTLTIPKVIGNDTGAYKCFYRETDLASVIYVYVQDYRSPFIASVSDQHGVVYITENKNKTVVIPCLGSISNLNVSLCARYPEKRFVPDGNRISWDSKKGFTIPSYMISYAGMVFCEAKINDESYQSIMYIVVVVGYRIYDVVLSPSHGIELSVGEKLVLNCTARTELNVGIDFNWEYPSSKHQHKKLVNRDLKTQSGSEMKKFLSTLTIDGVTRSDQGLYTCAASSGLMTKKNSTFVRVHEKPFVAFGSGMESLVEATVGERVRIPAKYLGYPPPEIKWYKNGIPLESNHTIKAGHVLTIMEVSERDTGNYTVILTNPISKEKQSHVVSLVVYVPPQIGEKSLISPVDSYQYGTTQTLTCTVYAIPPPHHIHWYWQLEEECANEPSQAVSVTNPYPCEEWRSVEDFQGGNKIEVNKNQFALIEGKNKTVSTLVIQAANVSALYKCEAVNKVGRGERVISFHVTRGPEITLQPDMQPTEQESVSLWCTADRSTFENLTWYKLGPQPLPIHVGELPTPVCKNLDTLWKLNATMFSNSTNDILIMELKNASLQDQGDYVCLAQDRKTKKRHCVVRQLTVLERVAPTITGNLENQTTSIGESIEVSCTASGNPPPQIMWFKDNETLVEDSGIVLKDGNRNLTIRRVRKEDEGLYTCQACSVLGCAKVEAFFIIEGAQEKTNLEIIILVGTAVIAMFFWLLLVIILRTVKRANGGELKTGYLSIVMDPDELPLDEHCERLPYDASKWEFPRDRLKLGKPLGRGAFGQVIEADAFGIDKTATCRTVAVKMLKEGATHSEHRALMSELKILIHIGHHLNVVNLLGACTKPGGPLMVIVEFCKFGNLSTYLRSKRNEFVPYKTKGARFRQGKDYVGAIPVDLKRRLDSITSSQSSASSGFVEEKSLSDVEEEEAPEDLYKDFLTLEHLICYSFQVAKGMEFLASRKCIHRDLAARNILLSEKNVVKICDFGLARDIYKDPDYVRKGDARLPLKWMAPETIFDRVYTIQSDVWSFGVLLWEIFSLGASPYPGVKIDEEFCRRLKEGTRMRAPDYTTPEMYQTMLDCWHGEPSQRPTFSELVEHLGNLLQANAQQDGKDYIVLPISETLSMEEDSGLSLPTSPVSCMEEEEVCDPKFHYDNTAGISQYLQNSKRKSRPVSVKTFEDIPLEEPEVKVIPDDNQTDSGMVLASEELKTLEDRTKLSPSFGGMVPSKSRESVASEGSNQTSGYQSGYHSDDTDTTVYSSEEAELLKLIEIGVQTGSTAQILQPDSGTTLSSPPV

MDA-MB-231 [3] = experiment: cells; conditions: Homo sapiens, MDA-MB-231, 48 h
Description: Antiproliferative activity against human MDA-MB-231 cells assessed as inhibition of cell growth incubated for 48 hrs by MTT reagent based ELISA

MCF7 [4] = experiment: cells; conditions: Homo sapiens, MCF7, 48 h; remark: listed apart in the source
Description: Antiproliferative activity against human MCF7 cells assessed as inhibition of cell growth incubated for 48 hrs by MTT reagent based ELISA

MDA-MB-231 [5] = experiment: Induction of apoptosis in human MDA-MB-231 cells assessed as Bax protein level incubated for 24 hrs by ELISA; format: functional
MDA-MB-231 [6] = experiment: Induction of apoptosis in human MDA-MB-231 cells assessed as BCL-2 protein level incubated for 24 hrs by ELISA; format: functional
MDA-MB-231 [7] = experiment: Induction of apoptosis in human MDA-MB-231 cells assessed as active caspase-3 protein level incubated for 24 hrs by ELISA; format: functional
MDA-MB-231 [8] = experiment: Induction of apoptosis in human MDA-MB-231 cells assessed as decrease in BCL-2 protein level incubated for 24 hrs by ELISA relative to control; format: functional; set-up: scale not given: the % may be the effect or the level left
Caco-2 = experiment: cells; conditions: Homo sapiens, Caco-2, 24 h
Description: Antiproliferative activity against human Caco-2 cells assessed as inhibition of cell growth incubated for 24 hrs by MTS assay

| SMILES | pKi (Carbonic anhydrase 9) | further results |
| --- | --- | --- |
| NS(=O)(=O)c1ccc(CC/N=C2\C(=O)Nc3ccc(Cl)cc32)cc1 | 7.54 | pIC50 (HCT-116): 5.44; pIC50 (MCF7 [1]): 4.62 |
| CC(C(=O)Nc1ccc(S(N)(=O)=O)cc1)N1CCCC(C(=O)N/N=C2\C(=O)Nc3cc([N+](=O)[O-])ccc32)C1 (centres undefined) | 7.53 |  |
| COc1ccc2c(c1)NC(=O)C2=NNC(=O)C1CCCN(C(C)C(=O)Nc2ccc(S(N)(=O)=O)cc2)C1 (centres undefined) | 8.38 | pIC50 [2]: 6.45; pIC50 (MDA-MB-231 [3]): 5.14; pIC50 (MCF7 [4]): 4.95 |
| NS(=O)(=O)c1ccc(NC(=O)CN2CCC(C(=O)NN=C3C(=O)Nc4ccc(Cl)cc43)CC2)cc1 | 7.84 |  |
| CC(C(=O)Nc1ccc(S(N)(=O)=O)cc1)N1CCCC(C(=O)N/N=C2\C(=O)Nc3cc(Br)ccc32)C1 (centres undefined) | 8.01 |  |
| CC(C(=O)Nc1ccc(S(N)(=O)=O)cc1)N1CCCC(C(=O)N/N=C2\C(=O)Nc3ccccc32)C1 (centres undefined) | 8.44 | pIC50 [2]: 6.69; Activity (MDA-MB-231 [5]): 265 pg/mL; Activity (MDA-MB-231 [6]): 3.31 ng/mL; Activity (MDA-MB-231 [7]): 509 pg/mL; Activity (MDA-MB-231 [8]): 76%; pIC50 (MDA-MB-231 [3]): 5.39; pIC50 (MCF7 [4]): 5.00 |
| COc1ccc2c(c1)NC(=O)C2=NNC(=O)C1CCCN(CC(=O)Nc2ccc(S(N)(=O)=O)cc2)C1 (centres undefined) | 7.72 |  |
| NS(=O)(=O)c1ccc(NC(=O)CN2CCCC(C(=O)N/N=C3\C(=O)Nc4cc(Br)ccc43)C2)cc1 (centres undefined) | 7.18 |  |
| NS(=O)(=O)c1ccc(NC(=O)CN2CCCC(C(=O)N/N=C3\C(=O)Nc4ccccc43)C2)cc1 (centres undefined) | 7.28 |  |
| Cc1ccc2c(c1)NC(=O)/C2=N\NC(=O)C1CCCN(CC(=O)Nc2ccc(S(N)(=O)=O)cc2)C1 (centres undefined) | 7.80 |  |
| CN1C(=O)/C(=N\NC(=O)C2CCCN(CC(=O)Nc3ccc(S(N)(=O)=O)cc3)C2)c2ccccc21 (centres undefined) | 7.47 |  |
| CC(C(=O)Nc1ccc(S(N)(=O)=O)cc1)N1CCCC(C(=O)N/N=C2\C(=O)Nc3cc(F)ccc32)C1 (centres undefined) | 8.29 |  |
| CC(C(=O)Nc1ccc(S(N)(=O)=O)cc1)N1CCCC(C(=O)N/N=C2\C(=O)N(Cc3ccc(F)cc3)c3ccccc32)C1 (centres undefined) | 8.01 |  |
| NS(=O)(=O)c1ccc(NC(=O)CN2CCC(C(=O)N/N=C3\C(=O)N(Cc4ccccc4)c4ccccc43)CC2)cc1 | 7.89 |  |
| NS(=O)(=O)c1ccc(NC(=O)CN2CCC(C(=O)NN=C3C(=O)Nc4ccccc43)CC2)cc1 | 7.61 |  |
| NS(=O)(=O)c1ccc(NC(=O)CN2CCC(C(=O)N/N=C3\C(=O)Nc4ccc(F)cc43)CC2)cc1 | 8.21 | pIC50 [2]: 6.09; pIC50 (MDA-MB-231 [3]): 4.72; pIC50 (MCF7 [4]): 4.53 |
| NS(=O)(=O)c1ccc(NC(=O)CN2CCCC(C(=O)N/N=C3\C(=O)Nc4cc(Cl)ccc43)C2)cc1 (centres undefined) | 7.66 |  |
| NS(=O)(=O)c1ccc(NC(=O)CN2CCCC(C(=O)NN=C3C(=O)Nc4cc(F)ccc43)C2)cc1 (centres undefined) | 7.45 |  |
| O=C(CN1C(=O)S/C(=C2/C(=O)Nc3ccccc32)C1=O)Nc1ccccc1 |  | pIC50 (Caco-2): 5.03 |
| NS(=O)(=O)c1ccc(NC(=O)CN2CCC(C(=O)NN=C3C(=O)Nc4ccc(Br)cc43)CC2)cc1 | 7.55 |  |
| NS(=O)(=O)c1ccc(NC(=O)CN2CCCC(C(=O)N/N=C3\C(=O)N(Cc4ccccc4)c4ccccc43)C2)cc1 (centres undefined) | 7.67 |  |
| CC(C(=O)Nc1ccc(S(N)(=O)=O)cc1)N1CCCC(C(=O)N/N=C2\C(=O)N(Cc3ccc(Cl)cc3)c3ccccc32)C1 (centres undefined) | 7.72 |  |
| O=c1[nH]cc(F)c(=O)[nH]1 [FLUOROURACIL] |  | pIC50 (MDA-MB-231 [3]): 5.06; pIC50 (MCF7 [4]): 5.29 |
